Key:
[1] = tested on: KB1P organoids; assay: Co-culture of pre-treated splenic T cells with KB1P organoids (MTT, cleaved-caspase 3); assay type: cell-based, mouse; details: LCKi 10 μmol/L
[2] = tested on: MMTV-PyMT organoids expressing OVA; assay: Co-culture of OT I T cells with MMTV-PyMT organoids expressing OVA (cleaved-caspase 3); assay type: cell-based, mouse; details: LCKi 10 μmol/L
Method: Experiments were approved by the Animal Welfare Committee of the Netherlands Cancer Institute and were performed in accordance with national guidelines. Mice were housed in individually ventilated cage (IVC) systems under specific pathogen-free conditions and received chow and water ad libitum. FVB/NRj females (Janvier), C57BL/6-Tg (TcraTcrb) 1100Mjb/J females (OT I mice, Jackson laboratory), and ROSA26mTmG FVB females (NKI) were used at 8-20 weeks of age at the time of fat pad injection of tumor organoids or spleen isolation.
For T cells isolated from mouse mammary tumors, T cells were directly co-cultured with tumor organoids after FACS isolation. For T cells isolated from the spleen, T cells were treated for 72 h with PBS or with docetaxel (docetaxel 10 nmol/L), in the presence or absence of an LCKi (10 μmol/L, Merck Millipore, Cat. No. 213743-31-8). To evaluate the docetaxel-specificity of our observations, T cells were treated with paclitaxel 10 nmol/L or carboplatin 50 μmol/L for 72 h. Subsequently, T cells were collected and washed 3 times in PBS to remove residual chemotherapy or LCKi.
Organoids were fixed in 4% paraformaldehyde in PBS for 20 min at room temperature, followed by permeabilization in 0.2% TritonX-100 in PBS for 15 min at room temperature. […]

[3] = tested on: A375 (melanoma), EGL1 (hepatobiliary cancer) and MDA-MB-231 (breast cancer); KB1P organoids; assay: Co-culture of cancer cells or KB1P organoids with T cells pretreated with vinblastine; assay type: cell-based, human; details: Jurkat or mouse splenic T cells pretreated with vinblastine; MTT, cleaved caspase 3
Text: Data are shown for three different cell lines derived from human cancer, namely A375 (melanoma), EGL1 (hepatobiliary cancer) and MDA-MB-231 (breast cancer). Organoid apoptosis (determined by cleaved caspase 3 staining) in breast cancer mouse KB1P organoids following co-culture with mouse splenic T cells pretreated with control, vinblastine or colchicine is also shown in FIG. 18. Data are presented as mean with SEM. N=3 biological repeats per repeat.

Row | SMILES | effect of LCK inhibition on docetaxel-increased cytotoxic activity of CD4 or CD8 T cells [1] | killing of OVA-expressing organoids by OT I T cells [2] | T cell mediated cancer cell killing [3]
1 | Nc1ncnc2c1c(-c1ccc(Oc3ccccc3)cc1)cn2C1CCCC1 [LCKi] | did not impair | reduced killing | –
2 | CC[C@]1(O)C[C@@H]2CN(CCc3c([nH]c4ccccc34)[C@@](C(=O)OC)(c3cc4c(cc3OC)N(C)[C@H]3[C@@](O)(C(=O)OC)[C@H](OC(C)=O)[C@]5(CC)C=CCN6CC[C@]43[C@@H]65)C2)C1 [Vinblastine, vinblastine] | – | – | induces T cell mediated cancer cell killing
